Experimental data from US8557804B2, “Nicotinic receptor agonists for the treatment of inflammatory diseases” (priority 2002, dated 2013).
Several values for one entry are separate records, joined by “and”; a condition that tells them apart may be missing. Equal entries are not always repeated.

Experiments:
[1] = test system: IL-10 mRNA expression in AMJ2-C11 cells; assay: IL-10 mRNA expression by RT-PCR in AMJ2-C11 cells; assay type: cell-based, mouse; conditions: SR-stimulated 24 h, 80 μM
Experimental: (§1) The effect of nicotine or DMPP treatment on AMJ2-C11 cells was tested on TNF-α, IL-10 mRNA expression by RT-PCR. These cytokines are involved in the development of pulmonary inflammatory diseases such as HP, asthma and sarcoidosis (52-55). […] Reference is made to FIG. 3 where results are expressed as a % of expression, 100% being attributed to the LPS alone group. The intensity of the band was obtained by dividing the intensity of the TNF-α band by that of β-actin. […] Reference is made to FIG. 4 where results are expressed as described in FIG. 5.

IL-5 = assay: BAL IL-5 levels in the ovalbumin mouse asthma model; assay type: in vivo, Balb/c mice; conditions: 0.5 mg/kg treated-group
Experimental: Groups of Balb/c mice were sensitized by intra-peritoneal injection of 20 μg OVA protein (chicken egg albumin; Sigma-Aldrich) emulsified in 2 mg aluminum hydroxide in PBS. After 4 weeks, challenge doses of 1.5%/50 μl OVA were administered intranasally. The challenge was performed daily for 3 consecutive days and then the mice assessed for allergic inflammation of the lungs 24 h after the last aerosol exposure. Groups of mice were treated with various concentrations of DMPP during the challenge period. Broncho-alveolar lavage (BAL) was performed and the fluid centrifuged at 400 g to separate cells from liquid.
The supernatants were used to determine lung IL-5 levels. The total, number of BAL cells and differential cell counts were evaluated.

IL-4 mRNA expression = IL-4 mRNA expression induced by a 24 h LPS stimulation; assay type: cell-based; conditions: LPS stimulation 24 h, 40 to 160 μM
Experimental: The effect of agonist treatment on mRNA expression of IL-4, a cytokine that is well known to be involved in the development of asthma, was also tested (53). […] Cells were treated with different doses (40 to 160 μM for both nicotine and DMPP).

[2] = test system: TNF-α mRNA expression in AMJ2-C11 cells; assay: TNF-α mRNA expression by RT-PCR in AMJ2-C11 cells; assay type: cell-based, mouse; conditions: SR-stimulated 24 h, 40 and 80 μM
Experimental: as §1

[3] = test system: TNF release by human blood monocytes; assay: cells; assay type: cell-based; conditions: 40 μM, mean of 5 subjects
Experimental: Human monocytes were isolated from the blood of asthmatic patients by Ficoll-paque density gradient, let to adhere to tissue culture plates and stimulated with LPS (100 ng/ml) for 18 hours at 37° C. with or without increasing concentrations of nicotine. The release of TNF, a potent pro-inflammatory mediator, was measured in the cell culture supernatant by the ELISA method. Results are expressed as a percentage release from LPS-stimulated untreated cells (FIG. 28).
Tumor necrosis factor (TNF) is a mediator released in inflammatory states.
Human blood monocytes were isolated by Ficoll-paque density gradient, let to adhere to tissue culture plates and stimulated with LPS (100 ng/ml) for 18 hours at 37° C. with or without increasing concentrations of nicotine analogues.

[4] = test system: mouse tracheal airway smooth muscle; assay: Isometric study on isolated mouse tracheas pre-contracted with metacholine; conditions: cumulative doses, metacholine 10^−5
Experimental: Tracheal rings were mounted isometrically to force transducers in organ baths containing Krebs bicarbonate solution at 37° C. and bubbled with 95% O2-5% CO2, pre-contracted with submaximal concentration of metacholine (10^−5) and cumulative doses of the analogs were added to the baths. Changes of tension are recorded. Results are expressed as a percentage of maximal contraction (FIG. 29).
As described previously, tracheal or bronchial rings were mounted isometrically to force transducers in organ baths containing Krebs bicarbonate solution at 37° C. and bubbled with 95% O2-5% CO2, pre-contracted with submaximal concentration of metacholine cumulative doses of ASM-002 added. Changes of tension are recorded. Results are expressed as a percentage of maximal contraction for mouse (FIG. 34, p=0.002), dog (FIG. 35, p=0.004) and human (FIG. 36)

[5] = test system: CD80 expression on AMJ2-C11 cells; assay: B7 (CD80) molecule expression on AMJ2-C11 cells; assay type: cell-based, mouse; conditions: 40 μM for 48 h
Experimental: The effects of nicotine and DMPP on B7 (CD80) molecule expression were tested in vitro. AMJ2-C11 cells (mouse alveolar macrophages, from the ATCC) were incubated with 40 μM nicotine or DMPP and stimulated with LPS (0.1 μg/ml) or SR antigen (50 μg/ml) for 48 hours.

[6] = test system: IFN-γ mRNA in T lymphocytes isolated from BAL; assay: IFN-γ mRNA in PHA-stimulated BAL lymphocytes from HP patients; assay type: cell-based, human
Experimental: Since one goal was to treat patients with DMPP or similar drugs, the effect of this drug was verified on lymphocytes from patients with HP. BAL were performed on patients with HP. Lymphocytes were isolated from the other BAL cells, stimulated with PHA and incubated with DMPP. The dose-response of DMPP were tested on cytokine mRNA production (by RT-PCR) for IFN-γ.

[7] = test system: collagen 1A mRNA expression by normal human lung fibroblasts; assay: Collagen A1 gene expression by RT-PCR in primary normal lung fibroblasts; assay type: cell-based; conditions: primary normal fibroblasts, RT-PCR
Experimental: Asthma is characterized by airway structural changes, including sub-epithelial collagen deposition, that may be a cause for the chronicity of the disease. An imbalance between collagen synthesis and its degradation by fibroblasts may be involved in this process (56). In preliminary experiments, we investigated the effects of nicotinic agonists on collagen A1 synthesis produced by primary normal fibroblasts. Collagen A1 gene expression was evaluated by RT-PCR.
The results are expressed percentage gene expression in agonists treated cells compared to non-treated cells.

[8] = test system: lung resistance after metacholine challenge; assay: Airway hyper-reactivity / lung resistance to metacholine in asthmatic mice (FlexiVENT); assay type: in vivo; conditions: 0.5 mg/kg intranasal DMPP
Experimental: Airway hyper-reactivity (AHR) in response to metacholine was measured in anesthetized, tracheotomized, ventilated mice using a computer-controlled ventilator (FlexiVENT™).
Increasing doses of metacholine (0 mg/kg-32.5 mg/kg) were administered through the jugular vein.
Lung response to a broncho-constrictive agent, metacholine, was measured by a Flexi-vent® apparatus. Ovalbumin-sensitized animals were treated intra-nasally with ASM-002 (4 mg/kg) during 3 days and 10 minutes prior to the metacholine challenge and compared to untreated OVA-sensitized animals. A negative control group of un-sensitized animals and a positive control group that received Salbutamol (Ventolin) 10 minutes before the metacholine challenge were also included.

[9] = test system: CD86 expression on alveolar macrophages; assay: CD86 expression in SR-stimulated BAL cells of a normal patient; assay type: cell-based, human
Experimental: A broncho-alveolar lavage was performed on a normal patient, and alveolar macrophages were isolated.

`C[N+]1(C)CCN(c2ccccc2)CC1` [DMPP, Dimethylphenylpiperazinium] was tested, and the “reduction (drop) of IL-10 mRNA expression” value [1] was 87% and 90%, the “IL-5 levels in BAL” value (IL-5) was “significant inhibitory effect” and the “IL-4 mRNA expression” value (IL-4 mRNA expression) was “completely blocked”. The “reduction of TNF-α mRNA expression” value [2] was “up to 60%”, the TNF release [3] was “inhibits TNF release” and the “relaxation of tracheal smooth muscles pre-contracted with metacholine” value [4] was “dose dependant relaxation”. For the same compound, the “percentage of expression of CD80” value ([5]; LPS (0.1 μg/ml) stimulated, LPS alone 38%) was 17%, the “percentage of expression of CD80” value ([5]; SR antigen (50 μg/ml) stimulated, SR alone 35%) was 20% and the “expression of IFN-γ mRNA” value [6] was “reduced expression of IFN-γ”. For the same compound, the “collagen A1 gene expression” value [7] was “inhibits collagen A1 gene expression in a dose-dependent manner”, the “% of augmentation of lung resistance compared to asthmatic mice” value ([8]; metacholine 0-32.5 mg/kg) was “reduced” and the “PC200 (provocative challenge dose of 200% lung resistance augmentation) compared to asthmatic mice” value ([8]; p=0.04, n=6) was “significantly reduced”. For the same compound, the “less CD86 expressed than non-treated cells” value ([9]; SR-stimulated BAL cells) was 50% and the “expression of CD86 relative to non-treated cells” value ([9]; SR-stimulated alveolar macrophages) was “about half of the expression”.
